≈ marks a conversion by molar mass, not a printed value.
Columns and labels:
MCF-7 (human breast) = test: In vitro tumour cell growth inhibition (MTT), MCF-7; type: cell-based; conditions: MCF7, Table 1 experiment, 96 h
Procedure: (§1) Temozolomide (white powder), temozolomide acid (white powder) and temozolomide-8-carboxylate hexyl (white scale crystal) were made in house. For the estimation of in vitro tumour cell growth inhibition, MV3 (human melanoma), M14 (human melanoma), B16 and B16-BL6 (mouse melanoma), SHG-44, TJ899 and TJ905 (human glioma), MCF-7 (human breast), HCT-8 (human colon), A549 (human non small lung), Bel7402 (human hepatocellulor), and BGC-823 (human stomach) were used. All tumour cells were cultured in RPMI-1640 medium supplemented with 10% fetal bovine serum (FBS) at 37° C. in a humidified 5% CO2 incubator.
(§2) After being harvested from culture flasks, a cell suspension of 1×10^4/ml was made by using 1640 RPMI medium supplemented with 10% fetal bovine serum. 100 μl (contains 1000 tumour cells) of the cell suspension was seeded per well of 96-well flat-bottom Costar culture plates at 37° C. in a humidified 5% CO2 incubator for 24 hrs before introducing drugs. Each tested compounds was made for five different concentrations and 100 μl of the each concentration was introduced into parallel three wells; control wells were added with 100 μl of plain medium alone; fluorouracil (a chemotherapeutic antitumour drug) was used as the positive control. Cells were then incubated for 96 h. Proliferative response and cell death were determined using MTT (3-(4,5-dimethylthiazolyl)-2,5-diphenyl-tetrazolium bromide) assay.
(§3) MTT assay: Following incubation of cells with the tested compounds for 96 h, 100 μl of 0.4 mg/ml MTT in RPMI 1640 was added to each well and the plate was incubated at 37° C. for 4 h. The plate was then centrifuged and followed by removal of medium. 150 μl of DMSO was then added to dissolve formazan crystal. DMSO-added plates were placed on a plate shaker for 5 min and absorbance was measured spectrophotometrically at 540 nm (with reference wavelength at 450 nm) using a Benchmark microtiter plate reader (Bio-Rad 550, Bio-Rad Laboratories, CA, U.S.A.).
The IC50 was calculated from the curve of the tested compound concentrations against the inhibition rate of the tumour cells. […]

[1] = In vitro permeation, Franz diffusion cell, silicone membrane; type: in vitro ADME; conditions: 37° C., 8 h, FIGS. 3-5
Text: (§4) Jacketed Franz-type diffusion cells were used throughout the study and the barrier (12) (skin or silicone membrane) was mounted between the two chambers (14, 16) (2.8–3.4 cm^2 available surface area) with the dermal side in contact with the receiver solution (FIG. 2). The diffusion chambers (10) comprised a barrier of skin or silicone membrane (12) mounted between two chambers (14, 16). A cap (18) formed the donor compartment (14). The second receptor compartment (16) contained a receptor cell (20) with a stirring bar (22), sampling port (24) and cover (26). The stirring bar (22) was stirred by means of a magnet plate (28) having a rotating magnet. The receptor compartment comprised a water jacket (30) having a water inlet (32) and a water outlet (34).
Three types of materials were used in permeation studies. • 1. Silicone membrane (Silastic Medical Grade, 500-5, Dow Corning 0.005 in thick) was cut into circular sections (2 cm diameter) and washed with double distilled water prior to use. • 2. Full-thickness rat skin was obtained from Male Wistar rats aged 10 to 12 weeks and weighing 250 to 300 g, which were sacrificed by cervical dislocation, the abdomen shaved and the intact skin removed by dissection. Following removal of fat tissue, the skin was cut into circular pieces and used immediately. • 3. Samples of adult human epidermis were purchased from the Stephen Kirby Skin Bank (UK). The samples were from the leg, were stored at −18° C. and used within one week. Experiments
The membrane (as detailed above) was mounted on the diffusion cell (10), on which the surface area available for diffusion of each cell was about 2.8–3.4 cm^2. The cell cap (18) was placed on the membrane (12), and it was sealed with Parafilm® connecting the cell cap, membrane, and receptor cell. The capacity of each receptor cell was around 25–26 ml, which was filled with receptor solution and was completely in contact with the membrane sheet. During the course of experiment, the solution was continuously stirred by teflon-coated magnetic bar (22) placed in the cell (20). The temperature was maintained at 37° C. by a thermostatic water pump that circulated the water through the jacket (30) surrounding the cell body. The system was allowed to equilibrate under these conditions for half an hour. Finally, the prepared sample solution (2 ml) was added into the donor cap cell, and it was sealed with Parafilm® to minimize the evaporation of donor solution. 1 ml of receptor solution was removed every 30 minutes for 5 hours and then every 60 minutes for a further 3 hours. The volumes withdrawn were always replaced with equal volumes of fresh receptor solution to maintain constant volume. The concentration of each sample solution was determined by using HPLC.
For every sample, six determinations were performed on human and rat skin, and three determinations were carried out through artificial silicone membrane.
(§5) As stated above, after the removal of receptor solution, the receiver compartment was refilled with an identical volume of receptor fluid. This causes of the dilution of receptor solution leading to an under determination of the sample concentration. As a consequence, it was necessary to mathematically correct each successive sample concentrations, in the present invention, which was determined by applying the following equation:
[formula] where Ct is the actual current concentration of drug in the receptor phase at time t, Cmt is the apparent (i.e. measured) current concentration of drug in the receptor phase, Vs is the sample volume withdrawn for analysis, Vr is the volume of receptor solution, and ΣCm is the summed total of the previous measured concentrations.
Finally, the amount of drug penetrating the skin per unit area was calculated by dividing the obtained concentrations by the surface area available for diffusion cell and this value was different for each individual cell. […]

B16 (mouse melanoma) = test: In vitro tumour cell growth inhibition (MTT), B16; type: cell-based; conditions: Mus musculus, Table 2 experiment, 96 h
Procedure: as §1, §2, §3
(§6) The IC50 was calculated from the curve of the tested compound concentrations against the inhibition rate of the tumour cells. Table 1 summarized the experiment results by using six human cancer cell lines, HCT-8 (colon carcinoma), A549 (non small lung carcinoma), MCF-7 (breast), Bel7402 (hepatocellulor carcinoma), BGC-823 (stomach adenocarcinoma), and MV3 (melanoma). Table 2 summarized the results from the experiment results by using two human melanoma cell lines, MV3 and M14, two mouse melanoma cell lines, B16 and B16-BL6, and three human glioma cell lines, TJ899, SHG-44 and TJ905.

M14 (human melanoma) = test: In vitro tumour cell growth inhibition (MTT), M14; type: cell-based; conditions: Homo sapiens, Table 2 experiment, 96 h
Procedure: as §1, §2, §3, §6

[2] = In vitro permeation and metabolism, Franz diffusion cell, full-thickness rat skin; type: in vitro ADME; conditions: 37° C., 8 h, FIGS. 6-8
Text: as §4
Three types of materials were used in permeation studies. • 1. […]
The membrane (as detailed above) was mounted on the diffusion cell (10), on which the surface area available for diffusion of each cell was about 2.8–3.4 cm^2. […] The concentration of each sample solution was determined by using HPLC. […]
as §5, with “This causes of the dilution of receptor solution leading to an under determination of the sample concentration.” left out, “equation: […]” for “equation:”

IC50 (MCF-7 (human breast)): 20 µg/mL (≈ 71.6 µM)
IC50 (B16 (mouse melanoma)): 28.3 µg/mL (≈ 101 µM)
IC50 (M14 (human melanoma)): > 100 µg/mL
Permeation through full-thickness rat skin (cumulative amount permeated %) [2]: maximum value
SMILES: CCCCCCOC(=O)c1ncn2c(=O)n(C)nnc12 [temozolomide hexyl ester, Hexyl 3,4-dihydro-3-methyl-4-oxoimidazo[5,1-d]-1,2,3,5-tetrazine-8-carboxylate]
Permeation through synthetic silicone membrane [1]: passed through the membrane far more efficiently

Reference: patent US7173021B2, “Synthesis of temozolomide esters as potent anticancer pro-drugs for topical and transdermal applications in treatments of cancers” (Tianjin North Pharm Sci-Tech Co., Ltd., priority 2004, dated 2007)
